The target in data set [1] is T1, CDK4/CyclinD1 (Homo sapiens, UniProt P11802).
T1 construct: purchased Invitrogen
Description: CDK4/CyclinD1 kinase activity test (LANCE Ultra TR-FRET). It counts as biochemical. To be noted: 350 μM ATP, 25° C., 120 minutes; read-out: Enzyme activity data (IC50) CDK4/cyclinD1. The procedure: Experimental materials: CDK4/CyclinD1 kinase was purchased from Invitrogen, reaction substrate LANCE Ultra ULight™-4E-BP-1 (Thr37146) Peptide and EU-ANTI-P-4EBP1 (THR37/46) were purchased from PerkinElmer. Nivo Multilabel Analyzer (PerkinElmer).
Experimental method: preparation of kinase buffer: The components of the buffer include: 50 mM of hydroxyethylpiperazine […] solution with pH 7.5, 1 mM of EDTA, 10 mM of magnesium chloride, 0.01% lauryl polyoxyethylene ether (Brij-35), 2 mM of enzyme dithiothreitol, kinase buffer dilution enzyme, substrate LANCE Ultra ULight™-4E-BP-1 (Thr37146) Peptide, adenosine triphosphate and inhibitor. […] The reaction system was continued at 25° C. for 120 minutes. After the reaction was complete, a mixture of 5 μL of EDTA and 2× LANCE™ Detection Buffer (1:1) was added to each well, and reacted at 25° C. for 5 minutes, after the reaction was complete, 5 μL of LANCE Ultra Eu-anti-P-4E-BP1(Thr37MS) (4 nM) was added to each well, and reacted at 25° C. for 60 minutes, the reaction signal was detected by Nivo instrument according to the principle of time-resolved fluorescence resonance energy transfer.
(§1) Table 1 provides the enzymatic inhibitory activities of the compounds of the present invention on CDK2/CyclinA2, CDK2/CyclinE1, CDK4/CyclinD1, CDK6/CyclinD1, CDK9/CyclinT1.
On the technique in general: Time-resolved FRET reads energy transfer from a long-lived donor to a nearby acceptor.

For data set [2], the target named is T2, CDK9/CyclinT1 (Homo sapiens, UniProt P50750).
T2 construct: purchased Carna
T2 sequence (P50750 whole entry): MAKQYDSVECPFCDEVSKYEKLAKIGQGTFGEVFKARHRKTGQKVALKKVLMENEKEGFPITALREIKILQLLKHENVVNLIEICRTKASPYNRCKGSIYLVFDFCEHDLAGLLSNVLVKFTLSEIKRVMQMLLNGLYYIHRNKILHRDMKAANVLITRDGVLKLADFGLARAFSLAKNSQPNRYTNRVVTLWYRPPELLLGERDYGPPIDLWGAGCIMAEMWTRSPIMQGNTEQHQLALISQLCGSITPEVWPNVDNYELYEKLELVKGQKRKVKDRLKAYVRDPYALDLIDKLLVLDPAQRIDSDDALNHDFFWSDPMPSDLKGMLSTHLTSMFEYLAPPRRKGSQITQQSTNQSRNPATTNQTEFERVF
T2 sequence (O60563 whole entry partner): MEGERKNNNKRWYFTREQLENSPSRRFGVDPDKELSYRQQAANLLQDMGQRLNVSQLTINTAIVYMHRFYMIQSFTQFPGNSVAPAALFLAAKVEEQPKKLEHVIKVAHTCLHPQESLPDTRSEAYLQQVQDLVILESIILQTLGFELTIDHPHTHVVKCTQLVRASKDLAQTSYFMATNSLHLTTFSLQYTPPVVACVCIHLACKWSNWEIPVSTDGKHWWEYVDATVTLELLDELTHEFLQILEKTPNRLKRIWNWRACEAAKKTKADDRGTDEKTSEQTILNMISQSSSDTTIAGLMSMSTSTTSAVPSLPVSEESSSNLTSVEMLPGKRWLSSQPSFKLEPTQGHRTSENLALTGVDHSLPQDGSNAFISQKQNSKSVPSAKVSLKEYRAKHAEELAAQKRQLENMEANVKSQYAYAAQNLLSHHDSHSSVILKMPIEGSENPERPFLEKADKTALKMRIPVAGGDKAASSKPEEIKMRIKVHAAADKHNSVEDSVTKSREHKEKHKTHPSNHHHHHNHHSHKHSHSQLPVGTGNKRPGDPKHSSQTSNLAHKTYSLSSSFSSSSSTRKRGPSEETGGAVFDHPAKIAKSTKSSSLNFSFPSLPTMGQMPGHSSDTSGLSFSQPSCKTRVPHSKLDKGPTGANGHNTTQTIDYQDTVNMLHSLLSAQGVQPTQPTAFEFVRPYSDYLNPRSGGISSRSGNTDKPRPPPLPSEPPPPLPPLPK
Put plainly: CDK9/CyclinT1 kinase activity assay (ADP-Glo). It counts as biochemical. To be noted: 100 μM ATP, 25° C., 60 minutes; read-out: Enzyme activity data (IC50) CDK9/CyclinT1. The procedure:
Experimental materials: CDK9/CyclinT1 kinase was purchased from Carna, the ADP-Glo detection kit was purchased from Promega, the PKDTide substrate and kinase reaction buffer were purchased from Signalchem. Nivo Multilabel Analyzer (PerkinElmer).
Experimental method: Kinase buffer dilution enzyme in the kit, substrate, adenosine triphosphate and inhibitor were used. […] The reaction system was placed at 25° C. and reacted for 60 minutes. After the reaction was complete, 5 μL of ADP-Glo reagent was added to each well, and the reaction was continued at 25° C. for 40 minutes. At the end of the reaction, 10 μL of kinase detection reagent was added to each well. After the reaction was continued at 25° C. for 30 minutes, the chemiluminescence was read by a multi-label analyzer with an integration time of 0.5 seconds.
as §1
On the technique in general: ADP-Glo first removes unused ATP, then detects ADP through luciferase.

The subject of data set [3] is HCT116 cells. Put plainly: HCT116 cell activity test (CellTiter-Glo). It counts as cell-based. Particulars: Homo sapiens, HCT-116, 96 h, 4 days, read-out: Antiproliferative activity (IC50) HCT 116. The method, then: Experimental materials: McCoy' 5a medium, fetal bovine serum, and penicillin/streptomycin antibiotics were purchased from Vicente. CellTiter-Glo (chemiluminescence detection reagent for cell viability) reagent was purchased from Promega. The HCT116 cell line was purchased from Cobioer Biosciences Co., Ltd. Nivo Multilabel Analyzer (PerkinElmer).
Experimental method: HCT116 cells were seeded in a white 96-well plate, 80 μL of cell suspension per well, which contained 1000 HCT116 cells. The cell plate was incubated overnight in a carbon dioxide incubator. The compounds to be tested were diluted 5-fold to the 9th concentration with a row gun, that is, from 2 mM to 5.12 nM, and a double-replicate well experiment was set up. 78 μL of medium was added to the middle plate, and then transferred 2 μL per well of the gradient diluted compound to the middle plate according to the corresponding position, mixed well and transferred 20 μL per well to the cell plate. […] Another cell plate was prepared, and the signal value was read as the maximum value (Max value in the equation below) on the day of drug addition to participate in data analysis. 25 μL of chemiluminescence detection reagent for cell viability was added to each well of the cell plate, and incubated at room temperature for 10 minutes to stabilize the luminescence signal. A multi-label analyzer was used for reading. […]
(In ATP-based viability assays light output follows the ATP content of the culture.)

Data set [4] in a line: Pharmacokinetic evaluation in female Balb/c mice. It counts as in vivo. To be noted: mouse, plasma. The procedure: Healthy adult female Balb/c mice used in this study were purchased from Shanghai Lingchang Biotechnology Co., Ltd.
1.11 mg of the compound to be tested was accurately weighed, 109.8 μL of DMSO was added and vortexed for 1 minute, 109.8 μL of solutol was added and vortexed for 1 minute to obtain a clear solution, then 878 μL of water was added and vortexed for 1 minute to obtain the final solution with a final concentration of 1 mg/mL, the dosing vehicle was 10% DMSO+10% solutol+80% water. The solution in the intravenous injection group was filtered with a 2 μm filter before administration.
1.61 mg of the compound to be tested was accurately weighed, 796 μL of 1% HPMC was added, sonicated at 45° C. for 20 minutes, and stirred for 15 minutes to obtain a homogeneous suspension solution with a final concentration of 2 mg/mL. The dosing vehicle was 1% HPMC.
4 female Balb/c mice were divided into 2 groups according to 2 mice in each group. The first group was given 2 mg/kg of the compound to be tested by intravenous injection; the second group was given 10 mg/kg of the compound to be tested by gavage.
The blood was collected from two animals at each time point by continuous blood collection. 30 μL of whole blood was collected before administration and at 0.0833, 0.25, 0.5, 1, 2 (only gavage group), 4, 6, 8 (only intravenous group), and 24 hours after administration, respectively. The whole blood was placed in an anticoagulant tube, centrifuged at 3200 g for 10 minutes at 4° C., the plasma was prepared and stored at −80° C. Drug concentration in the plasma was determined by LC/MS-MS.

T1 sequence (P11802 whole entry): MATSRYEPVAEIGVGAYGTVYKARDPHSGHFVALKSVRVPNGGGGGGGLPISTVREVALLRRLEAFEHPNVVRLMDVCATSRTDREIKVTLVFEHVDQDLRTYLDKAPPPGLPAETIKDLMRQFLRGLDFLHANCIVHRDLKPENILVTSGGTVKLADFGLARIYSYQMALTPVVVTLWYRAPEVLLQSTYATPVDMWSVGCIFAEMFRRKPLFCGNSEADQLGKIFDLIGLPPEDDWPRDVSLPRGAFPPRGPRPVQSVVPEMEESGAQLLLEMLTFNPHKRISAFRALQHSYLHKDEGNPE
T1 sequence (P24385 whole entry partner): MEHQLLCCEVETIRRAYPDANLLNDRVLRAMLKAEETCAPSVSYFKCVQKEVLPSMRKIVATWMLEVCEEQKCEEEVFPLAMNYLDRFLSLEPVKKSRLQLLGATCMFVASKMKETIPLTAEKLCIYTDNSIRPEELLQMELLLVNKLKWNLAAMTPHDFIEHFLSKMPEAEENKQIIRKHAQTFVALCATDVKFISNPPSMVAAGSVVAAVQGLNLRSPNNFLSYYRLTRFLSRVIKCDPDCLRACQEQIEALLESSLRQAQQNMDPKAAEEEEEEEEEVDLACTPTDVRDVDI

By clearance is commonly meant the volume of plasma or blood freed of the substance per unit of time. The term bioavailability denotes the share of a dose that reaches the circulation, judged against a reference dose that is usually intravenous. Turning to `C[C@@]1(O)CCC[C@H]1N1C(=O)CCc2cnc(NC3CCN(S(C)(=O)=O)CC3)nc21` [Compound 1A], the IC50 in data set [1] was 5.9 nM; in data set [2] it was 110 nM; in data set [3], 70 nM. In addition, in data set [4] (Intravenous Injection: 2 mg/kg, read-out: Clearance Rate Cl), the clearance was 36.9 mL/min/kg. Besides, the half-life in data set [4] (Intravenous Injection: 2 mg/kg, read-out: Half-Life T1/2 (converted)) was 16.8 min. Further, the bioavailability in data set [4] (Oral Administration: 10 mg/kg, read-out: Oral Bioavailability F) stood at 31.4%. Further, the AUC(0-t) in data set [4] (Oral Administration: 10 mg/kg, read-out: Oral Exposure AUC0-t) came out at 3.37 µM·h.
